Results reported in patent publication US20260115237A1, “PROBIOTIC COMPOSITION FOR PREVENTING AND TREATING ANTI-TUMOR TREATMENT-RELATED DIARRHEA AND USE THEREOF” (SICHUAN ANAEROBIC BIOTECHNOLOGY CO., LTD., priority 2023, published 2026).
“Also recorded” adds a separate entry of the source.

Key:
Type in all cases: in vivo
[1] = test system: mice with 5-FU-induced diarrhea; assay: Diarrhea scoring, mice with 5-FU-induced diarrhea (CID model); settings: 20 mg/kg i.g.; 5-FU model
Description: Pdist-1, Lferm-1, Lsali-1, Eaviu-1, and Bbifi-1 were each inoculated into the corresponding bacterial powder preparation medium, and then anaerobically cultured at 37° C. and 90 rpm for 16-24 h to obtain a primary seed solution. Subsequently, the five primary seed solutions were each transferred to the corresponding bacterial powder preparation medium, and then anaerobically cultured at 37° C. and 90 rpm for 10-15 h to obtain a secondary seed solution. The five secondary seed solutions were each pumped into a fermenter containing the corresponding bacterial powder preparation medium using a peristaltic pump, and then subjected to fermentation culture. After the fermentation was stopped, the bacterial cells of each strain were collected by centrifugation. Each corresponding lyoprotectant was added according to a weight ratio of the bacterial sludge to the lyoprotectant of 1:1 to 1:2, and the mixture was well mixed to emulsify the bacterial sludge. Each bacterial sludge was lyophilized and pulverized to obtain a bacterial powder. An appropriate amount of each pulverized bacterial powder was taken for determination of viable count. The bacterial powders of the strains were mixed at equal CFU concentrations based on the viable counts to obtain a bacterial composition powder. Finally, the bacterial composition powder was prepared into a bacterial suspension using normal saline for an animal experiment. The bacterial suspension was diluted with normal saline to obtain bacterial compositions with different bacterial doses. […]
During the experimental period, the body weight of the animals was measured daily, and general observations were recorded (the observation items included but were not limited to the animals' appearance signs, behaviors and activities, respiration, glandular secretion, fecal condition, etc.). The diarrhea condition of each animal after modeling was specifically observed and then recorded and scored. […]

[2] = test system: IL-1β; assay: qPCR of colon tissue, 5-FU-induced diarrhea mice; settings: 20 mg/kg i.g.; 5-FU model
Description: (§1) (1) Experimental design: Ninety-six SPF-grade male Balb/c mice weighing 22-24 g (purchased from Beijing Vital River Laboratory Animal Technology Co., Ltd.) were housed in an SPF-grade animal room. Based on the initial body weight, the mice were randomly divided into 8 groups of 12: a normal control group, a model control group, a positive control loperamide group, a positive control Zhengchangsheng group, a high-dose bacterial composition group, a medium-high-dose bacterial composition group, a medium-dose bacterial composition group, and a low-dose bacterial composition group. The aforementioned 8 groups were intragastrically given normal saline (0.2 mL/mouse/day), lyoprotectant (0.2 mL/mouse/day), loperamide (purchased from Henan Zhongjie Pharmaceutical Co., Ltd., 20 mg/kg body weight/mouse/day), Zhengchangsheng (containing viable Bacillus licheniformis, Northeast Pharmaceutical Group Co., Ltd., 2×10^8 CFU/mouse/day), high-dose bacterial composition (1×10^9 CFU/mouse/day), medium-high-dose bacterial composition (1×10^8 CFU/mouse/day), medium-dose bacterial composition (1×10^7 CFU/mouse/day), and low-dose bacterial composition (1×10^6 CFU/mouse/day), respectively. The overall experimental period was 9 days, designated as D1 to D9. Intragastric administration was performed for 8 consecutive days from D1 to D8. Modeling was started on D3. The mice in the normal control group received abdominal injection of normal saline at 0.2 mL/mouse, while the mice in all other groups were intraperitoneally injected with 5-FU (5-fluorouracil, purchased from Tianjin Pharma Heping (Tianjin) Pharmaceutical Co., Ltd.; specification: 10 mL/vial, 0.25 g/10 mL) at 30 mg/kg body weight for 4 consecutive days to induce a CID mouse model. The mice were dissected on D9.
(§2) During the experimental period, the body weight of the animals was measured daily, and general observations were recorded (the observation items included but were not limited to the animals' appearance signs, behaviors and activities, respiration, glandular secretion, fecal condition, etc.). The diarrhea condition of each animal after modeling was specifically observed and then recorded and scored. After euthanasia was performed at the end of the experiment, middle colon tissue samples were collected for qPCR detection of genes related to inflammatory factors (TNF-α and IL-1β) and tight junction proteins (ZO-1 and Occludin).
(§3) (3) qPCR detection: The total RNA was extracted from colon tissues of the mice in each group using the Trizol method and then reverse-transcribed into cDNA. The cDNA was stored at −20° C. for later use. The relative mRNA transcriptional levels of the genes encoding the pro-inflammatory factors IL-1β and TNF-α, as well as the tight junction proteins ZO-1 and Occludin-1, in the colon of the mice in each group were detected using the qRT-PCR method (the primer sequences are shown in Table 7, and the internal reference gene was β-actin). Reaction program: 1) 95° C. for 3 min; 2) 95° C. for 10 s, 60° C. for 30 s, 95° C. for 15 s, and 60° C. for 1 min, 40 cycles in total; and 3) 95° C. for 10 s. Data analysis was performed using the 2^−ΔΔCT method.

[3] = test system: Occludin; assay: qPCR of colon tissue, 5-FU-induced diarrhea mice; settings: 20 mg/kg i.g.; 5-FU model
Description: as §1, §2, §3

[4] = test system: TNF-α; assay: qPCR of colon tissue, 5-FU-induced diarrhea mice; settings: 20 mg/kg i.g., 5-FU model
Description: as §1, §2, §3

[5] = test system: ZO-1; assay: qPCR of colon tissue, 5-FU-induced diarrhea mice; settings: 20 mg/kg i.g.; 5-FU model
Description: as §1, §2, §3

[6] = test system: mice with radiation enteritis; assay: Diarrhea scoring, radiation enteritis model mice; settings: 15 mg/kg i.g.
[7] = Body weight, radiation enteritis model mice; settings: 15 mg/kg i.g.
Description: (§4) (1) Experimental design: Eighty male C57BL/6 mice (purchased from Chengdu GemPharmatech Co., Ltd.) were housed in an SPF-grade animal room. Based on the body weight, the aforementioned mice were randomly divided into 8 groups of 10: a normal control group (administration regimen: normal saline at 0.2 mL/mouse/day), a model control group (administration regimen: lyoprotectant at 0.2 mL/mouse/day), a loperamide group (administration regimen: loperamide at 15 mg/kg body weight), an LGG (Lactobacillus rhamnosus GG, Shaanxi Zelang Biotechnology Co., Ltd.) group (administration regimen: LGG at 1×10^9 CFU/mouse/day), a high-dose bacterial composition group (administration regimen: bacterial composition at 1×10^9 CFU/mouse/day), a medium-high-dose bacterial composition group (administration regimen: bacterial composition at 1×10^8 CFU/mouse/day), a medium-dose bacterial composition group (administration regimen: bacterial composition at 1×10^7 CFU/mouse/day), and a low-dose bacterial composition group (administration regimen: bacterial composition at 1×10^6 CFU/mouse/day). Except for the normal control group, all other groups of mice were subjected to a single whole abdominal X-ray irradiation at a dose of 11.5 Gy. The overall experimental period was 18 days, designated as D1 to D18. Each group was subjected to intragastric administration once daily for 17 consecutive days. Seven days after administration, irradiation was performed on D8, and dissection was conducted on D18.
(§5) During the experimental period, the body weight of the animals was measured daily, and general observations were recorded (the observation items included but were not limited to the animals' appearance signs, behaviors and activities, respiration, glandular secretion, fecal condition, etc.). The diarrhea condition of each animal after irradiation modeling was specifically observed and then recorded and scored. At the end of the experiment, the animals were euthanized, and the colorectal parts were taken, directly fixed in a 10% formaldehyde solution, stained with HE, and then subjected to pathological examination.

[8] = test system: mice with radiation enteritis; assay: Colorectal pathological examination (HE), radiation enteritis model mice; settings: 15 mg/kg i.g.
Description: as §4, §5
(3) Pathological examination of intestinal tissues: The colorectal parts were directly fixed in a 10% formaldehyde solution, stained with HE, and then subjected to pathological examination.

[9] = test system: 5-FU-induced tumor-bearing CID mice; assay: Diarrhea scoring, 5-FU-induced tumor-bearing CID mice; settings: 20 mg/kg i.g., tumor-bearing 5-FU model
Description: The bacterial composition used in Examples 10-12 were obtained by mixing five strains at equal CFU concentrations according to the method in Example 9. The CFU of the bacterial composition referred to in Examples 10-12 was the total CFU of the five strains.
(§6) Experimental design: Fifty male BALB/c mice (purchased from Chengdu GemPharmatech Co., Ltd.) were housed in an SPF-grade animal room. CT26 cells (purchased from Beijing BeNa Culture Collection) were subcutaneously inoculated into the right flank of each mouse at a dose of 5×10^6 cells/mouse in a volume of 0.1 mL. When the tumor volume reached about 100-150 mm^3, 42 mice were selected for the subsequent experiment. Based on the tumor volume, the aforementioned 42 mice were randomly divided into 7 groups of 6. The aforementioned 7 groups were as follows: a normal control group (administration regimen: lyoprotectant at 0.2 mL/mouse/day), a model control group (administration regimen: lyoprotectant at 0.2 mL/mouse/day), a positive control loperamide group (administration regimen: loperamide at 20 mg/kg body weight), a Zhengchangsheng group (administration regimen: Bacillus licheniformis at 2×10^8 CFU/mouse/day), a high-dose bacterial composition group (administration regimen: bacterial composition at 1×10^9 CFU/mouse/day), a medium-dose bacterial composition group (administration regimen: bacterial composition at 1×10^8 CFU/mouse/day), and a low-dose bacterial composition group (administration regimen: bacterial composition at 1×10^7 CFU/mouse/day). The day of grouping was designated as day 1 (D1) of the experiment, and intragastric administration was started on day 1 (D1) and performed once daily (QD) for 9 consecutive days. On days 3, 4, 5, and 6 of administration, the normal control group was intraperitoneally injected with normal saline at 0.2 mL/mouse, while the mice in all other groups were intraperitoneally injected with 5-FU (50 mg/kg body weight, 10 mL/kg body weight) for modeling. Compared with the normal control group, the tumor volumes of mice in each group were reduced after 5-FU injection.

[10] = test system: 5-FU-induced tumor-bearing CID mice; assay: Blood routine examination, 5-FU-induced tumor-bearing mouse model; settings: 20 mg/kg i.g.; tumor-bearing 5-FU model
Description: as §6
The specific administration regimens are detailed in Table 18. After the end of the experiment, whole blood samples were collected from animals in each group through enucleation, and then subjected to blood routine examination using a five-classification blood cell analyzer for animals (Shenzhen Dymind Biotechnology Co., Ltd.).

CN(C)C(=O)C(CCN1CCC(O)(c2ccc(Cl)cc2)CC1)(c1ccccc1)c1ccccc1 [Loperamide, loperamide]
D8 diarrhea score [1]: 0.08 ± 0.08
D9 diarrhea score [1]: 0.17 ± 0.11
Total diarrhea score [1]: 0.25 ± 0.18
IL-1β relative mRNA transcription level in colon tissue [2]: 1.26
Occludin relative mRNA transcription level in colon tissue [3]: 0.90
TNF-a relative mRNA transcription level in colon tissue [4]: 1.05
TNF-a relative mRNA transcription level in colon tissue ([4]; listed as loperamide): significantly reduce
ZO-1 relative mRNA transcription level in colon tissue [5]: 0.80
D17 total diarrhea score [6]: 9.80 ± 0.59
D17 total diarrhea score ([6]; listed as loperamide): significant improvements
D1 body weight [7]: 23.11 ± 0.20 g
D14 body weight [7]: 19.79 ± 0.14 g
D14 body weight change rate [7]: −14.37 ± −10.00%
D17 body weight [7]: 20.92 ± 0.16 g
D17 body weight change rate [7]: −9.48 ± −6.38%
D17 body weight ([7]; listed as loperamide): a trend toward restoring
Goblet cell (colorectal pathological score) [8]: 1.60 ± 0.08
Inflammatory infiltration (colorectal pathological score) [8]: 2.00 ± 0.00
Mucosal damage (colorectal pathological score) [8]: 1.60 ± 0.08
Pathological score (colorectal) [8]: 5.20 ± 0.15
Pathological score (colorectal) ([8]; listed as loperamide): an improvement trend
D1-D9 total diarrhea score [9]: 4.67 ± 0.56
D6 diarrhea score [9]: 0.33 ± 0.21
D7 diarrhea score [9]: 1.00 ± 0.00
D8 diarrhea score [9]: 1.33 ± 0.21
D9 diarrhea score [9]: 2.00 ± 0.37
D1-D9 total diarrhea score ([9]; listed as loperamide): a significant reduction; also recorded: significantly ameliorate diarrhea
D8 diarrhea score ([9]; listed as loperamide): a significant reduction
Hematocrit [10]: 43.17 ± 0.99%
Lymphocyte count [10]: 1.18 ± 0.29 10^9/L
Platelet count [10]: 216.67 ± 21.53 10^9/L
Red blood cell count [10]: 9.39 ± 0.23 10^12/L
White blood cell count [10]: 1.24 ± 0.30 10^9/L
